# Source: US20220280468A1, “METHOD FOR PREVENTING OCCURRENCE OF CARDIOVASCULAR EVENT IN MULTIPLE RISK PATIENT” (MOCHIDA PHARMACEUTICAL CO., LTD., priority 2006, published 2022)
# Key:
# [1] = system: cardiovascular events in hypercholesterolemia patients; assay: JELIS partial analysis: occurrence of cardiovascular events in primary prevention hypercholesterolemia patients by risk factors; type: in vivo, human; conditions: for Incidence in the EPA-E group (cases of occurrence/all cases) / Incidence in the EPA-E group (%): with HMG-CoA RI base drug; for Rate of suppression of cardiovascular event occurrence after correcting the dispersion between groups: end of trial
# Excerpt: This trial corresponds to a partial analysis of the results obtained in JELIS (Japan EPA Lipid Intervention Study) which is a large scale clinical trial of high purity EPA preparation which was presented in The […] 2005 Annual Meeting (for general information on JELIS, see Medical Tribune, issue of Nov. 17, 2005, Feature article 3, pp. 75-76).
# More specifically, for the EPA-E group (7503 cases) and the control group (7478 cases) evaluated for the primary prevention effect in the 18,645 subject patients of the JELIS trial (EPA-E group (9,326 cases) and control group (9,319 cases)), occurrence of the cardiovascular events was observed and analysed for 5 years from the start of the administration in relation to the number of risk factors at the registration as defined by the following (1) to (4): • (1) obesity: body mass index (BMI) of at least 25; • (2) hypertension or prehypertension: systolic blood pressure (SBP) of at least 140 mmHg or diastolic blood pressure (DBP) of at least 90 mmHg; • (3) diabetes, prediabetes, or abnormal glucose tolerance: fasting blood glucose (FBS) of at least 126 mg/dL or hemoglobin Alc (HbAlc) of at least 6.5%; • (4) hypertriglyceridemia or low HDL cholesterolemia: a triglyceride (TG) of at least 150 mg/dL or a HDL-C of less than 40 mg/dL.
# The EPA-E group was orally administered with Epadel (Mochida Pharmaceutical Co., Ltd.) typically at an adult dose of 600 mg per administration and 3 times a day after the meal. However, in the case of abnormal serum TG, the dose could be increased to 900 mg per administration and 3 times a day. In both groups, pravastatin sodium (Mevalotin™ tablets and fine granules, Daiichi Sankyo Co., Ltd.), simvastatin (Lipovas™ tablets, Banyu Pharmaceutical Co., Ltd.), or atorvastatin calcium hydrate (Lipitor™ tablets, Astellas Pharma Inc. and Pfizer Inc.) was used for the base drug, and these drugs were orally administered according to the prescribed dosage regimen. More specifically, pravastatin sodium was orally administered at a daily dose of 10 to 20 mg in a single dose or two divided doses; simvastatin was orally administered at a daily dose of 5 to 20 mg in a single dose; atorvastatin calcium hydrate was orally administered at a daily dose of 10 to 40 mg in a single dose.
# The number of occurrence of cardiovascular events in the observation period of 5 years, incidence (%), and rate of suppression of the incidence of the cardiovascular events in the EPA-E group with respect to the control group are shown in Table 1 for each number of risk factors. The rate of suppression of the incidence of the cardiovascular events was calculated by the formula: [{(incidence in the control group)−(incidence in the EPA-E group)}/incidence in the control group]×100.
# From the results of the trial as described above, the number of occurrence of cardiovascular events in the observation period of 5 years, incidence (%), and rate of suppression of the incidence of the cardiovascular events in the EPA-E group with respect to the control group were calculated for the male patients having at least two risk factors. (The calculation was conducted by the same procedure as described above.)
# (The calculation was conducted by the same procedure as described above.)
# [2] = system: cardiac events and serum lipids in hyperlipidemia patients; conditions: cited from earlier work
# [3] = 1-2 risk factors, 5 years observation
# [4] = 1-3 risk factors, 5 years observation
# [5] = 1-4 risk factors, 5 years observation
# [6] = 1 risk factor, 5 years observation
# [7] = 2-3 risk factors, 5 years observation
# [8] = 2-4 risk factors, 5 years observation
# [9] = 2 risk factors, 5 years observation
# [10] = 3-4 risk factors, 5 years observation
# [11] = 3 risk factors, 5 years observation
# [12] = TG of at least 150 mg/dL and HDL-C of less than 40 mg/dL
# [13] = male patients with two or more risk factors
# [14] = male patients, 2-4 risk factors, 5 years observation
# [15] = patients with TG of at least 150 mg/dL and HDL-C of less than 40 mg/dL, 5 years
# [16] = EPA-E group (with HMG-CoA RI), Non-Patent Document 3
structure (smiles),measurement,setting,value
"CC/C=C\C/C=C\C/C=C\C/C=C\C/C=C\CCCC(=O)OCC [EPA-E, ethyl icosapentate]",Rate of Suppression of cardiovascular event incidence vs control group,"[1]; 0 risk factors, 5 years",22%
same,Incidence in the EPA-E group (cases of occurrence/all cases),"[1]; 0 risk factors, 5 years observation",11/1326
same,Rate of Suppression of cardiovascular event incidence vs control group,"[1]; 1-2 risk factors, 5 years",21%
same,Incidence in the EPA-E group (%),[1]; [3],(1.3) %
same,Incidence in the EPA-E group (cases of occurrence/all cases),[1]; [3],59/4706
same,Rate of Suppression of cardiovascular event incidence vs control group,"[1]; 1-3 risk factors, 5 years",18%
same,Incidence in the EPA-E group (%),[1]; [4],(1.5) %
same,Incidence in the EPA-E group (cases of occurrence/all cases),[1]; [4],87/5935
same,Rate of Suppression of cardiovascular event incidence vs control group,"[1]; 1-4 risk factors, 5 years",18%
same,Incidence in the EPA-E group (%),[1]; [5],(1.5) %
same,Incidence in the EPA-E group (cases of occurrence/all cases),[1]; [5],93/6177
same,Rate of Suppression of cardiovascular event incidence vs control group,"[1]; 1 risk factor, 5 years",15%
same,Incidence in the EPA-E group (%),[1]; [6],(1.0) %
same,Incidence in the EPA-E group (cases of occurrence/all cases),[1]; [6],25/2468
same,Rate of Suppression of cardiovascular event incidence vs control group,"[1]; 2-3 risk factors, 5 years",16%
same,Incidence in the EPA-E group (%),[1]; [7],(1.8) %
same,Incidence in the EPA-E group (cases of occurrence/all cases),[1]; [7],62/3467
same,Rate of Suppression of cardiovascular event incidence vs control group,"[1]; 2-4 risk factors, 5 years",18%
same,Incidence in the EPA-E group (%),[1]; [8],(1.8) %
same,Incidence in the EPA-E group (cases of occurrence/all cases),[1]; [8],68/3709
same,Rate of Suppression of cardiovascular event incidence vs control group,"[1]; 2 risk factors, 5 years",23%
same,Incidence in the EPA-E group (%),[1]; [9],(1.5) %
same,Incidence in the EPA-E group (cases of occurrence/all cases),[1]; [9],34/2238
same,Rate of Suppression of cardiovascular event incidence vs control group,"[1]; 3-4 risk factors, 5 years",14%
same,Incidence in the EPA-E group (%),[1]; [10],(2.3) %
same,Incidence in the EPA-E group (cases of occurrence/all cases),[1]; [10],34/1471
same,Rate of Suppression of cardiovascular event incidence vs control group,"[1]; 3 risk factors, 5 years",5%
same,Incidence in the EPA-E group (%),[1]; [11],(2.3) %
same,Incidence in the EPA-E group (cases of occurrence/all cases),[1]; [11],28/1229
same,Rate of Suppression of cardiovascular event incidence vs control group,"[1]; 4 risk factors, 5 years",40%
same,Incidence in the EPA-E group (cases of occurrence/all cases),"[1]; 4 risk factors, 5 years observation",6/242
same,Effect on occurrence of cardiovascular events (in words),[1]; [12],significantly suppressed occurrence of cardiovascular events
same,Occurrence of fatal events in the EPA-E group,[1]; [12],occurrence of fatal events was not found
same,Time from start of administration after which decrease in cardiovascular event incidence was significant,[1]; [12],≥ 2 years
same,Rate of suppression of cardiovascular event occurrence after correcting the dispersion between groups,"[1]; TG of at least 150 mg/dL and HDL-C of less than 40 mg/dL, FIG. 2",53%
same,Effect on occurrence of cardiovascular events (in words),[1]; [13],significantly suppressed the occurrence of cardiovascular events
same,Time from start of administration after which decrease in cardiovascular event incidence was significant,[1]; [13],≥ 2 years
same,Rate of suppression of cardiovascular event occurrence after correcting the dispersion between groups,"[1]; male patients with two or more risk factors, FIG. 1",55%
same,Incidence in the EPA-E group (%),[1]; [14],(1.8) %
same,Incidence in the EPA-E group (cases of occurrence/all cases),[1]; [14],19/1065
same,Rate of Suppression of cardiovascular event incidence vs control group,"[1]; male patients, 2-4 risk factors, 5 years, uncorrected",56%
same,Suppression of occurrence of cardiovascular events vs control group,"[1]; patients with HDL-C of less than 40 mg/dL, uncorrected",35%
same,Rate of Suppression of cardiovascular event incidence vs control group,"[1]; patients with TG of at least 150 mg/dL and HDL-C of less than 40 mg/dL, 5 years, uncorrected",48%
same,Incidence in the EPA-E group (%),[1]; [15],(2.3) %
same,Incidence in the EPA-E group (cases of occurrence/all cases),[1]; [15],11/482
same,Suppression of occurrence of cardiovascular events vs control group,"[1]; patients with triglyceride of at least 150 mg/dL, uncorrected",15%
same,Change of HDL-cholesterol value,"[2]; EPA-E group (with HMG-CoA RI), Non-Patent Document 2",slight
same,Change in HDL-C,[2]; [16],little change
same,Decrease of LDL-cholesterol,[2]; [16],25%
same,Decrease of total cholesterol,[2]; [16],19%
same,Reduction of LDL-cholesterol value,"[2]; EPA-E group (with HMG-CoA RI), after 5 years, Non-Patent Document 2",26%
same,Decrease of triglyceride,"[2]; EPA-E group (with HMG-CoA RI), significant, Non-Patent Document 3",9%
same,Incidence of events vs control group (in words),[2]; analysis limited to the primary prevention patients,this difference was not statistically significant
same,Suppression of cardiac events (in words),"[2]; total of primary and secondary prevention patients, and secondary prevention patients",statistically significant suppression
